# Assay results as given in US11267840B1, “Compound or salt thereof” (M.T.3, Inc., priority 2020, dated 2022).
# Columns and labels:
# [1] = test system: adenocarcinomic human alveolar basal epithelial cell line A549 cells; test: ROS production in A549 cells (CellROX Green fluorescence), test as candidate compound for radiosensitizer; format: cell-based; settings: 1 hour with test compound, CellROX Green 30 minutes, excitation 485 nm, detection 520 nm, FIG. 19
# Method: Fetal bovine serum (FBS) (manufactured by Sigma-Aldrich) was added to RPMI1640 (manufactured by Sigma-Aldrich) such that a final concentration was 10%. Further, penicillin G potassium (manufactured by Meiji Seika) and Streptomycin (manufactured by Meiji Seika) were each added in an amount of 0.1 mg/mL, and the thus obtained solution was used as a culture medium in the following test. Also, a CellROX Green Reagent solution (manufactured by Thermo Fisher Scientific) was used as a reagent.
# Adenocarcinomic human alveolar basal epithelial cell line A549 cells were suspended in the RPMI1640 medium (1.0×10^5 cells/mL), and the suspension was poured into a 96-well plate in an amount of 100 μL for each well. Thereafter, the cells were cultivated under a 5% CO2 moisture-saturated condition at 37° C. so as to attach to the plate, and after the cultivation was performed for 24 hours, the medium was removed by suction and the cells were washed with PBS. Next, 100 μL of PBS and 100 μL of a suspension of the test compound suspended in PBS ([…]) were separately added. […] After the cultivation was performed for 30 minutes, washing was performed using PBS, and fluorescence intensity at an excitation wavelength of 485 nm and a detection wavelength of 520 nm was measured.
# [2] = target: T1, lipase for organic synthesis (Lipase PS Amano SD) (Burkholderia cepacia, UniProt P22088); format: in vitro ADME
# T1 construct: purchased FUJIFILM Wako Pure Chemical Corporation
# Method: The test compound and lipase for organic synthesis (Lipase PS Amano SD, manufactured by FUJIFILM Wako Pure Chemical Corporation) were each adjusted using PBS so as to have a concentration of 1.3 μg/μL. Next, the thus obtained reaction solution was developed by TLC using an eluent (chloroform:methanol=1:1) and was analyzed. A sample that was taken before reaction progressed, a sample that was taken when 2 hours elapsed, and a sample that was taken when 4 hours elapsed were each used as the reaction solution to be developed. As for the reaction solution in which the compound (A) was used as the test compound, analysis was also performed on a sample that was taken when 18 hours elapsed from the start of reaction. TLC aluminum sheet silica gel 60 F254 (manufactured by Merck) was used as the TLC.
# T1 sequence (P22088 45-364): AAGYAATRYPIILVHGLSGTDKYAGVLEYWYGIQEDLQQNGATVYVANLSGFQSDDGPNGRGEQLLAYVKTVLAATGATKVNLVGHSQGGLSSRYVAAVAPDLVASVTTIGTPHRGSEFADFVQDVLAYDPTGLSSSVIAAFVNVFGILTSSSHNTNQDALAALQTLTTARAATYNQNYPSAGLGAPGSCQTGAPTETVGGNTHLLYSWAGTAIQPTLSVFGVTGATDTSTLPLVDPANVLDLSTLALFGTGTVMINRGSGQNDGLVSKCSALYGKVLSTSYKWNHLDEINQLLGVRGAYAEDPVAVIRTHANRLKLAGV
substance,measurement,setting,value
3-(n-octadecyloxy)-n-propyl-α-D-quinovopyranoside sodium salt [compound (A)],"ROS production (ROS production ratio, fluorescence intensity relative to PBS only = 1)",[1],induced production of the ROS
same,resistance to hydrolysis compared with the sulfopyranosylacyl propanediol derivative,"[2]; lipase, overall conclusion of FIG. 20",more excellent resistance to hydrolysis
same,decomposition of the test compound by lipase (TLC),"[2]; when 18 hours elapsed from the start of reaction, compound and lipase each 1.3 μg/μL in PBS, FIG. 20",not completely decomposed
